The values that follow come from US20240368120A1 (Terns Pharmaceuticals, Inc., priority 2023, published 2024).

For this assay, the target named is T1, human GLP-1R receptor (Homo sapiens, UniProt P43220).
T1 construct: expressed in transfected cells
Nature of the assay: GLP-1R low expression cell assay (cAMP TR-FRET, CHO-K1_hGLP-1Rlow_clone10 cells). The class given is cell-based. The note with it: for EC50: cAMP TR-FRET, 30 min at 25° C.; for Emax: maximum activation relative to control GLP-1 peptide agonist. The procedure: Stable cell lines expressing high and low GLP-1R surface expression were generated in CHO-K1 cells transfected (Fugene 6) with a puromycin selectable DNA plasmid encoding human GLP-1R receptor (accession number: NM_002062.5) under control of an EF1A promoter. Transfected cells were seeded into 24-well plates (9,000 cells/well) containing complete medium and incubated in a humidified incubator at 37° C. with 5% carbon dioxide. After overnight incubation, medium was replaced with complete medium supplemented with puromycin (6 μg/mL) and refreshed every 2-3 days to select for stably transfected cells. Individual pools of selected cells were expanded prior to analysis for responsiveness to GLP-1 control peptide using a TR-FRET assay to detect cAMP (LANCE Ultra CAMP Assay, Perkin Elmer). Briefly, cells were collected in Versene solution, plated in 384-well plates (1,000 cells/well) and combined with serially diluted GLP-IR control peptide (10 nL) using an acoustic dispenser (ECHO). Plates were incubated for 30 minutes at 25° C. prior to the addition of EU-CAMP tracer (5 μL) and Ulight-anti-CAMP (5 μL) reagents to each well, followed by 15 minutes incubation at 25° C. TR-FRET signal was detected using an En Vision Multimode Plate Reader (excitation=320 nm; emission=615 and 655 nm). Dose-response curves were used to generate EC50 values as a measure of responsiveness to the GLP-IR control peptide. Selected cell lines were monitored for responsiveness over multiple passages to ensure stability. […] Briefly, GLP-IR expression was analyzed by flow cytometry using a fluorescein-labeled Exendin-4 peptide fluorescent probe (FLEX). Cells were harvested in Versene solution and washed 3-times with PBS+0.5% BSA before incubation with FLEX reagent (10 μM) for 2 hours at room temperature. After incubation, cells were washed 3-times in PBS+0.5% BSA before final resuspension in PBS prior to analysis by flow cytometry to measure FLEX mean fluorescence intensity (MFI) as a measure of GLP-IR expression on the cell surface.
For compound testing in the CHO-K1_hGLP-IRlow_clone10 cell line, cells were seeded in 384-well plates (1,000 cells/well). Test compounds were serially diluted in DMSO (10-point, 3-fold dilution), added to wells using an ECHO dispenser (10 nL/well) and plates were centrifuged for 1 min and agitated for 2 min at room temperature prior to 30-minute incubation at 25° C. After incubation, Eu-CAMP (5 μL) and Ulight-anti-cAMP (5 μL) reagents were added to each well, followed by centrifugation for 1 minute, agitation for 2 minutes at room temperature, and final incubation of the plates at 25° C. for 15 minutes. Plates were read using an EnVision microplate reader (excitation=320 nm; emission=615 and 655 nm). Dose-response curves were generated from duplicate wells based on percent activation calculated relative to a control GLP-1 peptide agonist that was run in parallel. EC50 values were determined by fitting percent activation as a function of compound concentration using the Hill equation (XLfit).
The compounds tested were compound samples prepared according to the General Procedures described in the Examples section.
(Time-resolved FRET reads energy transfer from a long-lived donor to a nearby acceptor.)

The EC50 is the midpoint of the concentration-response curve. As usually defined, the Emax is the size of the effect at its maximum, as opposed to the concentration needed.

Structures are written as SMILES.

T1 sequence (P43220 24-463): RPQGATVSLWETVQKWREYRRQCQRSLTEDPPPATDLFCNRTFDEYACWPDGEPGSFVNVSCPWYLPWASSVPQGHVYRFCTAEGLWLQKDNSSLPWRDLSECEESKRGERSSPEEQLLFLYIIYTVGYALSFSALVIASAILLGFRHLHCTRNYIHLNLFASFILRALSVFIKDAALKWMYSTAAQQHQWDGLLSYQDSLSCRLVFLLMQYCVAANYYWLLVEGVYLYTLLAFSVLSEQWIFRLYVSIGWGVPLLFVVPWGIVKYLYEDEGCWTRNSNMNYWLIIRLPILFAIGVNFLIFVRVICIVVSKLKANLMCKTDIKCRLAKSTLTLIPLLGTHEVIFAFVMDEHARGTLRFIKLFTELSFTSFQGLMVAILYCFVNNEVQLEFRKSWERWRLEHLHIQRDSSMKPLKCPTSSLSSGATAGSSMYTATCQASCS

`CN(c1nc2c(OC(F)F)cc(C(=O)O)cc2n1C[C@@H]1CCO1)[C@H]1CC[C@@H](c2cccc(OCc3ccc(C#N)cc3F)n2)CC1` [Compound 131, 2-(((1s,4R)-4-(6-((4-cyano-2-fluorobenzyl)oxy)pyridin-2-yl)cyclohexyl) (methyl)amino)-4-(difluoromethoxy)-1-(((S)-oxetan-2-yl)methyl)-1H-benzo[d]imidazole-6-carboxylic acid] had an EC50 of 100 to 1000 nM and an Emax greater than 85%.

In turn, `CO[C@H]1C[C@@H](Oc2cc(C(=O)O)cc3c2nc(CN2CCC(c4cccc(OCc5ccc(C#N)cc5F)n4)CC2)n3C)C1` [Compound 318, 2-((4-(6-((4-Cyano-2-fluorobenzyl)oxy)pyridin-2-yl)piperidin-1-yl)methyl)-4-((1s,3s)-3-methoxycyclobutoxy)-1-methyl-1H-benzo[d]imidazole-6-carboxylic acid] had an EC50 of 100 to 1000 nM and an Emax greater than 85%.

Turning to `Cn1c(CN2CCC(c3cccc(OCc4ccc(Cl)cc4F)n3)CC2)nc2c(OCCF)cc(C(=O)O)cc21` [Compound 170, 2-((4-(6-((4-Chloro-2-fluorobenzyl)oxy)pyridin-2-yl)piperidin-1-yl)methyl)-4-(2-fluoroethoxy)-1-methyl-1H-benzo[d]imidazole-6-carboxylic acid], the EC50 was less than 10 nM and the Emax was greater than 85%.

Molecule `CCOc1cc(C(=O)O)cc2c1nc(CN1CCC(c3cccc4c3O[C@H](c3ccc(Cl)cc3F)CO4)CC1)n2C` [Compound 265, (R)-2-((4-(3-(4-chloro-2-fluorophenyl)-2,3-dihydrobenzo[b][1,4]dioxin-5-yl)piperidin-1-yl)methyl)-4-ethoxy-1-methyl-1H-benzo[d]imidazole-6-carboxylic acid] registered an EC50 of 10 to 100 nM and an Emax greater than 85%.

`Cn1c(CN2CCC(c3cccc(OCc4ccc(Cl)cc4F)n3)CC2)nc2c(OC3CC3)cc(C(=O)O)cc21` [Compound 215, 2-((4-(6-((4-Chloro-2-fluorobenzyl)oxy)pyridin-2-yl)piperidin-1-yl)methyl)-4-cyclopropoxy-1-methyl-1H-benzo[d]imidazole-6-carboxylic acid] had an EC50 of less than 10 nM and an Emax greater than 85%.

`O=C(O)c1ccc2c(nc(CN3CCC(c4cccc(OCc5ccc(Cl)cc5F)n4)CC3)n2C[C@@H]2CCO2)c1O` [Compound 245, (S)-2-((4-(6-((4-Chloro-2-fluorobenzyl)oxy)pyridin-2-yl)piperidin-1-yl)methyl)-4-hydroxy-1-(oxetan-2-ylmethyl)-1H-benzo[d]imidazole-5-carboxylic acid] displayed an EC50 of less than 10 nM and an Emax greater than 85%.

On to `Cn1c(CN2CCC(c3ccc4c(c3)N(Cc3ccc(Cl)cc3F)CCO4)CC2)nc2c(OC(F)F)cc(C(=O)O)cc21` [Compound 373, 2-((4-(4-(4-Chloro-2-fluorobenzyl)-3,4-dihydro-2H-benzo[b][1,4]oxazin-6-yl)piperidin-1-yl)methyl)-4-(difluoromethoxy)-1-methyl-1H-benzo[d]imidazole-6-carboxylic acid], for which the EC50 is greater than 1000 nM and the Emax was less than 25%.

Turning to `COc1cc(-c2cc(=O)[nH]o2)cc2c1nc(CN1CCC(c3cccc(OCc4ccc(Cl)cc4F)n3)CC1)n2C[C@@H]1CCO1` [Compound 382, (S)-5-(2-((4-(6-((4-Chloro-2-fluorobenzyl)oxy)pyridin-2-yl)piperidin-1-yl)methyl)-4-methoxy-1-(oxetan-2-ylmethyl)-1H-benzo[d]imidazol-6-yl) isoxazol-3 (2H)-one], the EC50 is less than 10 nM and the Emax is 50 to 85%.

Molecule `[2H]C([2H])(C)Oc1cc(C(=O)O)cc2c1nc(CN1CCC(c3cccc(OCc4ccc(Cl)cc4F)c3)CC1)n2C` [Compound 284, 2-((4-(3-((4-Chloro-2-fluorobenzyl)oxy)phenyl)piperidin-1-yl)methyl)-4-(ethoxy-1,1-d2)-1-methyl-1H-benzo[d]imidazole-6-carboxylic acid] showed an EC50 of 10 to 100 nM and an Emax greater than 85%.

The molecule `Cn1c(CN2CCC(c3cccc(OCc4ccc(Cl)cc4F)n3)CC2)nc2c(OC(F)F)cc(C(=O)O)c(F)c21` [Compound 190, 2-((4-(6-((4-Chloro-2-fluorobenzyl)oxy)pyridin-2-yl)piperidin-1-yl)methyl)-4-(difluoromethoxy)-7-fluoro-1-methyl-1H-benzo[d]imidazole-6-carboxylic acid] showed an EC50 of 10 to 100 nM and an Emax greater than 85%.

Molecule `Cn1c(CN2CC=C(c3cccc(OCc4ccc(Cl)cc4F)c3)CC2)nc2c(OC(F)F)cc(C(=O)O)cc21` [Compound 159, 2-((4-(3-((4-Chloro-2-fluorobenzyl)oxy)phenyl)-3,6-dihydropyridin-1(2H)-yl)methyl)-4-(difluoromethoxy)-1-methyl-1H-benzo[d]imidazole-6-carboxylic acid] yielded an EC50 of 100 to 1000 nM and an Emax greater than 85%.

In the case of `C[C@@H](F)Oc1cc(C(=O)O)cc2c1nc(CN1CCC(c3cccc(OCc4ccc(C#N)cc4F)n3)CC1)n2C` [Compound 312, (R)-2-((4-(6-((4-Cyano-2-fluorobenzyl)oxy)pyridin-2-yl)piperidin-1-yl)methyl)-4-(1-fluoroethoxy)-1-methyl-1H-benzo[d]imidazole-6-carboxylic acid], the EC50 fell in the range of 10 to 100 nM and the Emax is greater than 85%.

With `Cn1c(CN2CCC(c3cccc(OCc4ccc(C#N)cc4F)n3)CC2)nc2c(Oc3ccc(F)cc3)cc(C(=O)O)cc21` [Compound 352, 2-((4-(6-((4-Cyano-2-fluorobenzyl)oxy)pyridin-2-yl)piperidin-1-yl)methyl)-4-(4-fluorophenoxy)-1-methyl-1H-benzo[d]imidazole-6-carboxylic acid], the EC50 lay within 100 to 1000 nM and the Emax was greater than 85%.

The molecule `COc1c(F)c(C(=O)O)cc2c1nc(CN1CCC(c3cccc(OCc4ccc(Cl)cc4F)n3)CC1)n2C` [Compound 337, 2-((4-(6-((4-Chloro-2-fluorobenzyl)oxy)pyridin-2-yl)piperidin-1-yl)methyl)-5-fluoro-4-methoxy-1-methyl-1H-benzo[d]imidazole-6-carboxylic acid] yielded an EC50 of 10 to 100 nM and an Emax greater than 85%.

As for `C[C@]1(c2ccc(Cl)cn2)Oc2cccc(C3CCN(Cc4nc5cc(C(=O)O)cc6c5n4CCO6)CC3)c2O1` [Compound 75, (S)-2-((4-(2-(5-chloropyridin-2-yl)-2-methylbenzo[d][1,3]dioxol-4-yl)piperidin-1-yl)methyl)-3,4-dihydro-5-oxa-1,2a-diazaacenaphthylene-7-carboxylic acid], the EC50 was greater than 1000 nM and the Emax is less than 25%.

`[2H]C([2H])([2H])Oc1cc(C(=O)O)cc2c1nc(CN1CCC(c3cccc4c3O[C@@](C)(c3ccc(Cl)cn3)O4)CC1)n2C[C@@H]1CCO1` [Compound 98, 2-((4-((S)-2-(5-chloropyridin-2-yl)-2-methylbenzo[d][1,3]dioxol-4-yl)piperidin-1-yl)methyl)-4-(methoxy-d3)-1-(((S)-oxetan-2-yl)methyl)-1H-benzo[d]imidazole-6-carboxylic acid]: the EC50 is less than 10 nM and the Emax is greater than 85%.

`C[C@@H](Oc1ccccc1C1CCN(Cc2nc3c(OC(F)F)cc(C(=O)O)cc3n2C)CC1)c1ccc(C#N)cc1F` (single isomer, unassigned) [Compound 173] had an EC50 greater than 1000 nM and an Emax of less than 25%.

The molecule `Cn1c(CN2CCC(c3cccc(OCc4ccc(C#N)cc4F)n3)CC2)nc2c(OCC(F)(F)F)cc(C(=O)O)cc21` [Compound 121, 2-((4-(6-((4-Cyano-2-fluorobenzyl)oxy)pyridin-2-yl)piperidin-1-yl)methyl)-1-methyl-4-(2,2,2-trifluoroethoxy)-1H-benzo[d]imidazole-6-carboxylic acid] gave an EC50 of less than 10 nM and an Emax greater than 85%.
